What was measured:
[1] = Nanosphere formation by spontaneous emulsification; hydrodynamic size and polydispersity by dynamic light scattering; assay type: physicochemical; conditions: 25 mg/5 mL acetone into 10 mL 0.25% w/v Pluronic F-68 in water
Experimental: Nanospheres were prepared according to the method using spontaneous emulsification with slight modification. Briefly, 25 mg of the compounds were dissolved in acetone (5 mL). The organic solution was poured under moderate stirring on a magnetic plate into an aqueous phase prepared by dissolving 25 mg of Pluronic F68 in 10 mL bidistilled water (0.25% w/v). Following 15 min of magnetic stirring, the acetone was removed under reduced pressure at room temperature. The nanospheres were filtered through 0.45 μm hydrophilic syringe filter and stored at 4° C. The hydrodynamic size measurement and size distribution of the nanospheres was performed by the dynamic light scattering (DLS) using a Coulter N4-Plus Submicron Particle Sizer (Coulter Corporation, Miami, Fla.). The nanospheres were purified by centrifuging three times at 20,000×g for 30 min at 25° C. and resuspending each time in the same volume of deionized water. […] The size was assessed on three separate batches of the nanosphere formulation. The recovery yield was calculated as follows: RY (%)=(mass of the mALA-containing compounds recovered/mass of the mALA-containing compounds used in formulation)×100%. […] The solution was analyzed for the compounds by RP-HPLC. Separation was performed using 80% acetonitrile (0.1% trifluoroacetic acid, TFA) as mobile phase and the eluent was monitored using UV detector at 330 nm. […]

[2] = DPPH radical scavenging assay, Method A (dissolved DPPH); assay type: biochemical; conditions: Method A: 50 μM DPPH dissolved in ethanol/water; violet to pale yellow
Experimental: Method A: 5 mL of 100 μM DPPH solution in ethanol was mixed with 5 mL of water, resulting in a final concentration of 50 μM for DPPH. Trolox and ascorbic acid were dissolved in 100 mM sodium phosphate buffer (pH 7.5, 2.5 mM). The concentration of α-tocopherol in nanospheres was adjusted to 2.5 mM. The predetermined amount of Trolox, ascorbic acid solution and nanospheres were added to the DPPH solution using Hamilton syringe carefully to the bottom of 20 mL glass bottle to minimize the premature mixing. After gentle mixing, pictures were taken using digital camera (50000 pxitex).
The antioxidant capability of the nanospheres was assessed by the scavenging activity of DPPH free radical. The DPPH radical scavenging assay is often used as a model for the measurement of lipid radial scavenging activity of antioxidant compounds. […] The DPPH radical scavenging assay is usually performed in a 50:50 mixture of water and organic solvents, commonly ethanol or dimethyl suloxide, in which the DPPH radical is completely dissolved. In this condition (Method A), the violet color of DPPH radical solution converted instantaneously to the pale yellow color, which is indicative of an instantaneous DPPH radical scavenging by the nanospheres (FIG. 6a, Method A).

[3] = DPPH radical scavenging assay, Method B (fine dispersed DPPH suspension); assay type: biochemical; conditions: Method B: DPPH suspension in water
Experimental: Method B: 400 μL of 1.25 mM DPPH solution in ethanol was added to 9500 μL of water to give a fine dispersed DPPH suspension. Pictures were taken as described above.
In the method B (FIG. 6a), 400 μL of 1.25 mM DPPH solution in ethanol was added to 9500 μL of water to give a fine dispersed DPPH suspension with the particle size of 164±26 nm (polydispersity index 0.03).

formation of stable nanospheres [1] | SMILES | DPPH radical scavenging (color change) [2] | DPPH radical scavenging (color change) [3]
failure | O=C(CCCCC1CCSS1)OCCN1CCN(CCOC(=O)CCCCC2CCSS2)CC1 (stereo not drawn) [Compound 7a, 2×Lipoic acid/1,4-Bis(2-hydroxyethyl)-piperazine] |  | 
 | Cc1c(C)c2c(c(C)c1O)CCC(C)(C(=O)O)O2 (stereo not drawn) [Trolox] | complete and occurred instantaneously | much less color changes
failure | O=C(CCCCC1CCSS1)OCCOCCOCCOCCOC(=O)CCCCC1CCSS1 (stereo not drawn) [Compound 4a, 2×Lipoic Acid/Tetraethylene Glycol] |  | 
 | O=C1O[C@H]([C@@H](O)CO)C(O)=C1O [ascorbic acid] | complete and occurred instantaneously | much less color changes
